Test results from patent US20210317099A1, “SAFER, POTENT, AND FAST ACTING ANTIMICROBIAL AGENTS” (Purdue Research Foundation, priority 2020, published 2021).
Converted amounts (≈) assume the structure as drawn. Read-outs that look alike come from different tables or passages of the source.

Assays:
[1] = tested on: MRSA NRS 123; assay: MIC, Gram-positive panel; type: cell-based; conditions: Staphylococcus aureus
Method: (§1) Next, the spectrum of antibacterial activity of compounds 144, 148, 149, 151, 155, 158, and 187 was examined against a panel of clinically relevant Gram-positive bacterial pathogens including methicillin-resistant Staphylococcus aureus (MRSA), vancomycin-resistant Staphylococcus aureus (VRSA), vancomycin-resistant Enterococcus faecalis and Enterococcus faecium (VRE), and Streptococcus pneumoniae. Bacterial strains were grown aerobically overnight on tryptone soya agar plates at 37° C. Afterwards, a bacterial solution equivalent to 0.5 McFarland standard was prepared and diluted in cation-adjusted Mueller-Hinton broth (CAMHB) (for staphylococci). Enterococci and Streptococci were diluted in tryptone soya broth (TSB) to achieve a bacterial concentration of about 5×10^5 CFU/mL and seeded in 96-well plates. Compounds and control drugs were added in the first row of 96-well plates and serially diluted with media containing bacteria. Plates were then, incubated aerobically at 37° C. for 18-20 hours (except for S. pneumoniae, which was incubated at 37° C. in presence of 5% CO2 for 18-20 hours).

[2] = tested on: S. pneumoniae ATCC 51916; assay: MIC, Gram-positive panel; type: cell-based; conditions: Streptococcus pneumoniae, ATCC51916
Method: as §1

[3] = tested on: MRSA NRS 385; assay: MIC, Gram-positive panel; type: cell-based; conditions: Staphylococcus aureus
Method: as §1

[4] = tested on: Enterococcus faecalis ATCC 51299 (VRE); assay: MIC, Gram-positive panel; type: cell-based
Method: as §1

[5] = tested on: MRSA NRS 119; assay: MIC, Gram-positive panel; type: cell-based; conditions: Staphylococcus aureus
Method: as §1

[6] = tested on: VRSA 10; assay: MIC, Gram-positive panel; type: cell-based; conditions: Staphylococcus aureus
Method: as §1

[7] = tested on: MRSA NRS 386; assay: MIC, Gram-positive panel; type: cell-based; conditions: Staphylococcus aureus
Method: as §1

[8] = tested on: Enterococcus faecium ATCC 700221 (VRE); assay: MIC, Gram-positive panel; type: cell-based
Method: as §1

[9] = tested on: S. aureus ATCC 6538; assay: MIC, Gram-positive panel; type: cell-based; conditions: Staphylococcus aureus, ATCC6538
Method: as §1

[10] = tested on: Methicillin-resistant S. epidermidis NRS101; assay: MIC, Gram-positive panel; type: cell-based; conditions: Staphylococcus epidermidis
Method: as §1

[11] = tested on: S. aureus NRS 107; assay: MIC, Gram-positive panel; type: cell-based; conditions: Staphylococcus aureus, NRS107
Method: as §1

[12] = tested on: Methicillin-resistant S. pneumoniae ATCC 700677; assay: MIC, Gram-positive panel; type: cell-based; conditions: Streptococcus pneumoniae, ATCC700677
Method: as §1

[13] = tested on: VRSA 12; assay: MIC, Gram-positive panel; type: cell-based; conditions: Staphylococcus aureus
Method: as §1

[14] = tested on: total proteases production in MRSA USA300; assay: Inhibition of staphylococcal total proteases production, skimmed milk method; type: cell-based, Staphylococcus aureus; conditions: MRSA USA300, 0.25×MIC, untreated = 100%
Method: The modified skimmed milk method was utilized to investigate the protease inhibitory activities of BHS compounds as described previously. In brief, overnight culture of MRSA300 in TSB, with and without subinhibitory concentrations of compounds (in triplicate), was centrifuged at 14000×g for 10 minutes. Then, a total volume of 500 μL of culture supernatant was incubated with 1 mL skimmed milk (1.25%) at 37° C. for 1 hour. Afterwards, the OD600 was measured to indicate the degree of clearance of skimmed milk. Higher OD values indicate lower proteolytic activity and greater protease inhibitory activity.
FIG. 4. Influence of BHS compounds on the staphylococcal total protease production. OD600 was measured following overnight culturing of MRSA USA300 in TSB in presence and absence of 0.25×MIC of 148, 149, 155, 158 and vancomycin followed by incubation of supernatants with skim milk for 1 hour at 37° C. The Data are presented as percent production (means±standard deviation). DMSO (the solvent for the compounds that served as a negative control). Vancomycin served as the control antibiotic. The values represent an average (means±standard deviation) of four samples analyzed for each compound/antibiotic. Error bars represent standard deviation values. An asterisk (*) denotes statistical significance (P<0.05) between results for compounds 148, 149, 155, 158 and vancomycin analyzed via unpaired t test ([…]).

[15] = tested on: intracellular MRSA USA400 inside murine macrophage (J774) cells; assay: Clearance of intracellular MRSA in infected J774 macrophages; type: cell-based, Staphylococcus aureus; conditions: 24 hours, J774 infected with MRSA USA400
Method: The ability of the compound 148 to reduce the burden of intracellular MRSA was evaluated utilizing previously described methods. Murine macrophage cells (J774) were cultured in Dulbecco's Modified Eagle Medium (DMEM) supplemented with 10% FBS at 37° C. with CO2 (5%). J774 cells were exposed to MRSA USA400 cells at a multiplicity of infection of approximately 10:1. After 1 hour of infection, J774 cells were washed with gentamicin (200 μg/mL) to kill extracellular MRSA. The compounds or vancomycin (at 4×MIC and 8×MIC) were subsequently added to each well (four replicates per test agent). Control cells received DMSO at a concentration equal to that in drug-treated cell samples. After 24 hours-incubation at 37° C. with 5% CO2, the test agents were removed. J774 cells were washed and subsequently lysed using 0.1% Triton-X. The solution was serially diluted in phosphate-buffered saline and transferred to TSA plates in order to determine viable MRSA CFU inside the J774 cells. Plates were incubated at 37° C. for 18-22 hour before counting viable CFU/mL. Statistical significance was assessed with two-way ANOVA, with post hoc Dunnet's multiple comparisons test (P<0.05), utilizing GraphPad Prism 6.0 (GraphPad Software, La Jolla, Calif.).
FIG. 6. Examination of the activity of compounds 148 on the clearance of intracellular MRSA present inside infected murine macrophage (J774) cells. […] Data were analyzed via two-way ANOVA, with post hoc Dunnet's multiple comparisons test (P<0.05), utilizing GraphPad Prism 6.0 (GraphPad Software, La Jolla, Calif.). Asterisks (*) represent significant difference between treatment of J774 cells with compound 148 in comparison to vancomycin.

[16] = tested on: MRSA USA 400; assay: Time-kill assay; type: cell-based, Staphylococcus aureus; conditions: 5×MIC; for time required for complete eradication of the bacterial count: MRSA USA 400, 24-hour incubation
Method: In order to the mode of killing of methylene lactone compounds, a time kill assay was performed against MRSA USA 400 as described previously. MRSA USA400 cells in logarithmic growth phase (OD600˜1.00) were diluted to 6.03×10^6 colony-forming units (CFU/mL) and exposed to concentrations equivalent to 5×MIC (in triplicate) of 148, 149, 151, 155, 158 and vancomycin in Tryptic soy broth. Aliquots (100 μL) were collected from each treatment after 0, 2, 4, 6, 8, 12, and 24 hours of incubation at 37° C. and subsequently serially diluted in PBS. Bacteria were then transferred to Tryptic soy agar plates and incubated at 37° C. for 18-20 hours before viable CFU/mL was determined (FIG. 1).
DMSO (solvent for the compounds) served as a negative control and vancomycin served as a control drug. The error bars represent standard deviation values obtained from triplicate samples used for each compound/antibiotic studied.

[17] = tested on: Staphylococcus aureus NRS384 (MRSA USA300); assay: Initial MIC screening, broth microdilution (CLSI); type: cell-based; conditions: for MIC: Staphylococcus aureus NRS384 (MRSA USA300), broth microdilution, visual reading
Method: Method: The minimum inhibitory concentration (MIC) of the compounds 1-187, and control antibiotics (vancomycin, linezolid) was determined using the broth microdilution method against methicillin-resistant Staphylococcus aureus (MRSA) USA 300 using the broth microdilution method according to the guidelines outlined by the Clinical and Laboratory Standards Institute (CLSI). MRSA strain was cultivated on Tryptic soy agar plates and let grow for 24 hours at 37° C. under aerobic conditions. Bacterial suspension equivalent to 0.5 McFarland standard was prepared and diluted in cation-adjusted Mueller-Hinton broth (CAMHB) to attain a bacterial concentration of 5×10^5 CFU/ml and seeded in 96-well plates. The desired concentrations of each drug and compound were added in the first row of the 96-well plates and serially diluted to achieve a concentration gradient from 64 μg/ml to 0.5 μg/mL.

SMILES: CN[C@H](CC(C)C)C(=O)N[C@H]1C(=O)N[C@@H](CC(N)=O)C(=O)N[C@H]2C(=O)N[C@H]3C(=O)N[C@H](C(=O)N[C@H](C(=O)O)c4cc(O)cc(O)c4-c4cc3ccc4O)[C@H](O)c3ccc(c(Cl)c3)Oc3cc2cc(c3O[C@@H]2O[C@H](CO)[C@@H](O)[C@H](O)[C@H]2O[C@H]2C[C@](C)(N)[C@H](O)[C@H](C)O2)Oc2ccc(cc2Cl)[C@H]1O [vancomycin, reference compound]
- MIC [1]: 1 µg/mL (≈ 0.69 µM)
- MIC [2]: 2 µg/mL (≈ 1.38 µM)
- MIC [3]: 1 µg/mL (≈ 0.69 µM)
- MIC ([4]; Enterococcus faecalis): 32 µg/mL (≈ 22.1 µM)
- MIC [5]: 1 µg/mL (≈ 0.69 µM)
- MIC ([6]; VRSA): > 64 µg/mL
- MIC [7]: 1 µg/mL (≈ 0.69 µM)
- MIC ([8]; Enterococcus faecium): > 64 µg/mL
- MIC [9]: 1 µg/mL (≈ 0.69 µM)
- MIC ([10]; NRS101): 2 µg/mL (≈ 1.38 µM)
- MIC [11]: 2 µg/mL (≈ 1.38 µM)
- MIC [12]: 2 µg/mL (≈ 1.38 µM)
- MIC ([13]; VRSA): > 64 µg/mL
- total protease production [14]: ineffective
- reduction of intracellular MRSA ([15]; 4 μg/mL): not able to reduce
- reduction of intracellular MRSA ([15]; 8 μg/mL): not able to reduce
- time required for complete eradication of the bacterial count [16]: 12 h

SMILES: C=C(C(=O)OC)C(c1ccc2ccccc2c1)C(O)c1ccc2ccccc2c1 (stereo not shown) [Compound 149]
- MIC ([1]; MRSA NRS 123, read-out: MIC): 1 µg/mL (≈ 2.61 µM)
- MIC ([2]; S. pneumoniae ATCC 51916, read-out: MIC): 4 µg/mL (≈ 10.5 µM)
- MIC ([3]; MRSA NRS 385, read-out: MIC): 1 µg/mL (≈ 2.61 µM)
- MIC ([4]; Enterococcus faecalis ATCC 51299 (VRE), read-out: MIC): > 64 µg/mL
- MIC ([5]; MRSA NRS 119, read-out: MIC): 1 µg/mL (≈ 2.61 µM)
- MIC ([6]; VRSA 10, read-out: MIC): 8 µg/mL (≈ 20.9 µM)
- MIC ([7]; MRSA NRS 386, read-out: MIC): 1 µg/mL (≈ 2.61 µM)
- MIC ([8]; Enterococcus faecium ATCC 700221 (VRE), read-out: MIC): > 64 µg/mL
- MIC ([9]; S. aureus ATCC 6538, read-out: MIC): 1 µg/mL (≈ 2.61 µM)
- MIC ([10]; Methicillin-resistant S. epidermidis NRS101, read-out: MIC): 2 µg/mL (≈ 5.23 µM)
- MIC ([11]; S. aureus NRS 107, read-out: MIC): 1 µg/mL (≈ 2.61 µM)
- MIC ([12]; Methicillin-resistant S. pneumoniae ATCC 700677, read-out: MIC): 4 µg/mL (≈ 10.5 µM)
- MIC ([13]; VRSA 12, read-out: MIC): 16 µg/mL (≈ 41.8 µM)
- total protease production [14]: 63%
- potency compared with control antibiotic ([17]; MRSA USA300, Table 1 assay): potency comparable to vancomycin
- MIC [17]: 2 µg/mL (≈ 5.23 µM)
- MIC ([17]; Staphylococcus aureus, read-out: MIC): 1 to 2 µg/mL (≈ 2.61 to 5.23 µM)
- time required for complete eradication of the bacterial count [16]: not able to completely eradicate it after 24 hours
- reduction in the bacterial count after 6 hours ([16]; MRSA USA 400, after 6 hours): 3 log10
- reduction in the bacterial count after 6 hours (percent) ([16]; MRSA USA 400, after 6 hours): 99.9%
